This assay relates to MV-4-11 cells. As to the kind of experiment: Gene expression microarray analysis (Affymetrix PrimeView) and GSEA. It counts as cell-based, human. On the set-up: RFU PODN (11730768_x_at) / Fold change /veh PODN (11730768_x_at) / RFU LINC00158 (11744669_a_at) / Fold change /veh LINC00158 (11744669_a_at) / RFU DUSP10 (11751237_a_at) / Fold change /veh DUSP10 (11751237_a_at) / RFU ID3 (11757404_x_at) / Fold change /veh ID3 (11757404_x_at) / RFU PLEKHG5 (11737974_s_at) / Fold change /veh PLEKHG5 (11737974_s_at) / RFU LRRC4B (11730491_at) / Fold change /veh LRRC4B (11730491_at) / RFU GIMAP4 (11747438_a_at) / Fold change /veh GIMAP4 (11747438_a_at) / RFU KRT8 (11758183_x_at) / Fold change /veh KRT8 (11758183_x_at) / RFU CNN1 (11734310_a_at) / Fold change /veh CNN1 (11734310_a_at) / RFU VPS37D (11726825_at) / Fold change /veh VPS37D (11726825_at) / RFU C10orf10 (11716522_x_at) / Fold change /veh C10orf10 (11716522_x_at) / RFU KIR2DL2 /// KIR2DL4 /// KIR2DL5A /// KIR2DL5B /// KIR2DS1 /// KIR2DS2 /// KIR2DS3 /// KIR2DS4 /// KIR3DL3 /// KIR3DL3 /// KIR3DS1 (11738374_at) / Fold change /veh KIR2DL2 /// KIR2DL4 /// KIR2DL5A /// KIR2DL5B /// KIR2DS1 /// KIR2DS2 /// KIR2DS3 /// KIR2DS4 /// KIR3DL3 /// KIR3DL3 /// KIR3DS1 (11738374_at) / RFU C1QL1 (11718748_at) / Fold change /veh C1QL1 (11718748_at) / RFU TMPRSS4 (11747572_a_at) / Fold change /veh TMPRSS4 (11747572_a_at) / RFU HAMP (11756126_x_at) / Fold change /veh HAMP (11756126_x_at) / RFU RNFT2 (11725882_a_at) / Fold change /veh RNFT2 (11725882_a_at) / RFU NR4A2 (11747474_a_at) / Fold change /veh NR4A2 (11747474_a_at) / RFU ABCC12 (11746883_a_at) / Fold change /veh ABCC12 (11746883_a_at) / RFU TMEM136 (11760407_x_at) / Fold change /veh TMEM136 (11760407_x_at) / RFU CLDN22 /// WWC2 (11732394_at) / Fold change /veh CLDN22 /// WWC2 (11732394_at) / RFU HLA-DPB1 (11760878_x_at) / Fold change /veh HLA-DPB1 (11760878_x_at) / RFU SPINT1 (11716480_a_at) / Fold change /veh SPINT1 (11716480_a_at) / RFU GAP43 (11754022_s_at) / Fold change /veh GAP43 (11754022_s_at) / RFU A4GNT (11735810_at) / Fold change /veh A4GNT (11735810_at) / RFU PRB3 (11715151_x_at) / Fold change /veh PRB3 (11715151_x_at) / RFU TUBB4B (11761932_at) / Fold change /veh TUBB4B (11761932_at) / RFU CAPN14 (11732068_a_at) / Fold change /veh CAPN14 (11732068_a_at) / RFU TMCC2 (11721928_a_at) / Fold change /veh TMCC2 (11721928_a_at) / RFU IRGQ (11745062_a_at) / Fold change /veh IRGQ (11745062_a_at) / RFU FAM174B (11720279_a_at) / Fold change /veh FAM174B (11720279_a_at) / RFU TMPRSS4 (11748680_a_at) / Fold change /veh TMPRSS4 (11748680_a_at) / RFU FAM212B (11763350_a_at) / Fold change /veh FAM212B (11763350_a_at) / RFU PLEKHG5 (11743358_a_at) / Fold change /veh PLEKHG5 (11743358_a_at) / RFU ZSCAN30 (11745921_a_at) / Fold change /veh ZSCAN30 (11745921_a_at) / RFU CMKLR1 (11741424_a_at) / Fold change /veh CMKLR1 (11741424_a_at) / RFU LOC101060620 /// MAPK8IP1 (11723275_at) / Fold change /veh LOC101060620 /// MAPK8IP1 (11723275_at) / RFU SPTSSB (11747773_x_at) / Fold change /veh SPTSSB (11747773_x_at) / RFU PRSS12 (11739890_at) / Fold change /veh PRSS12 (11739890_at) / RFU BIN1 (11741810_x_at) / Fold change /veh BIN1 (11741810_x_at) / RFU WNT11 (11732464_a_at) / Fold change /veh WNT11 (11732464_a_at) / RFU C10orf10 (11716521_a_at) / Fold change /veh C10orf10 (11716521_a_at) / RFU C5orf56 (11738089_at) / Fold change /veh C5orf56 (11738089_at) / RFU CYB561 (11721691_x_at) / Fold change /veh CYB561 (11721691_x_at) / RFU ANKRD19P (11752326_a_at) / Fold change /veh ANKRD19P (11752326_a_at) / RFU OR2T12 /// OR2T33 /// OR2T8 (11738714_s_at) / Fold change /veh OR2T12 /// OR2T33 /// OR2T8 (11738714_s_at) / RFU VCAN (11748164_a_at) / Fold change /veh VCAN (11748164_a_at) / RFU JSRP1 (11732532_at) / Fold change /veh JSRP1 (11732532_at) / RFU KRTAP10-11 (11738290_x_at) / Fold change /veh KRTAP10-11 (11738290_x_at) / RFU MYO3A (11730013_a_at) / Fold change /veh MYO3A (11730013_a_at) / RFU EBF3 (11725865_a_at) / Fold change /veh EBF3 (11725865_a_at) / RFU CAMK2N1 (11719241_x_at) / Fold change /veh CAMK2N1 (11719241_x_at) / RFU C5orf56 (11738088_a_at) / Fold change /veh C5orf56 (11738088_a_at) / RFU OLFML3 (11715873_a_at) / Fold change /veh OLFML3 (11715873_a_at) / RFU LOC100653217 /// NTM (11731650_a_at) / Fold change /veh LOC100653217 /// NTM (11731650_a_at) / RFU MAPK11 (11762145_a_at) / Fold change /veh MAPK11 (11762145_a_at) / RFU FIZ1 (11724087_x_at) / Fold change /veh FIZ1 (11724087_x_at) / RFU OASL (11726364_x_at) / Fold change /veh OASL (11726364_x_at) / RFU SOX15 (11748057_x_at) / Fold change /veh SOX15 (11748057_x_at) / RFU CD79A (11719716_a_at) / Fold change /veh CD79A (11719716_a_at) / RFU HIST1H1D (11736915_at) / Fold change /veh HIST1H1D (11736915_at) / RFU CASKIN2 (11723855_a_at) / Fold change /veh CASKIN2 (11723855_a_at) / RFU LOC730098 (11760151_x_at) / Fold change /veh LOC730098 (11760151_x_at) / RFU OR4N2 (11742367_at) / Fold change /veh OR4N2 (11742367_at) / RFU PRRT2 (11749266_a_at) / Fold change /veh PRRT2 (11749266_a_at) / RFU SNX32 (11753110_a_at) / Fold change /veh SNX32 (11753110_a_at) / RFU CDHR5 (11726645_a_at) / Fold change /veh CDHR5 (11726645_a_at) / RFU RCAN1 (11760418_a_at) / Fold change /veh RCAN1 (11760418_a_at) / RFU FAM167A (11723789_a_at) / Fold change /veh FAM167A (11723789_a_at) / RFU FAM26E (11764081_at) / Fold change /veh FAM26E (11764081_at) / RFU ISYNA1 (11749810_s_at) / Fold change /veh ISYNA1 (11749810_s_at) / RFU ACY1 (11761880_at) / Fold change /veh ACY1 (11761880_at) / RFU 11764098_at / Fold change /veh 11764098_at / RFU SAMD14 (11745864_x_at) / Fold change /veh SAMD14 (11745864_x_at) / RFU NPB (11741838_a_at) / Fold change /veh NPB (11741838_a_at) / RFU TMPRSS6 (11731388_a_at) / Fold change /veh TMPRSS6 (11731388_a_at) / RFU KRTAP10-2 (11738614_at) / Fold change /veh KRTAP10-2 (11738614_at) / RFU ARHGAP8 /// PRR5-ARHGAP8 (11727945_x_at) / Fold change /veh ARHGAP8 /// PRR5-ARHGAP8 (11727945_x_at) / RFU KRTAP5-7 /// NADSYN1 (11734609_at) / Fold change /veh KRTAP5-7 /// NADSYN1 (11734609_at) / RFU RASL12 (11751679_a_at) / Fold change /veh RASL12 (11751679_a_at) / RFU CDKN2B (11736163_a_at) / Fold change /veh CDKN2B (11736163_a_at) / RFU PRF1 (11729649_at) / Fold change /veh PRF1 (11729649_at) / RFU, ZNF638 /// ZNF638-IT1 / Fold change vs veh, ZNF638 /// ZNF638-IT1 / RFU, PANK3 / Fold change vs veh, PANK3 / RFU, SH3YL1 / Fold change vs veh, SH3YL1 / RFU, ZEB2 / Fold change vs veh, ZEB2 / RFU, NRIP1 / Fold change vs veh, NRIP1 / RFU, PTTG1IP / Fold change vs veh, PTTG1IP / RFU, CAPN2 / Fold change vs veh, CAPN2 / RFU, MED14 / Fold change vs veh, MED14 / RFU, SNORA58 / Fold change vs veh, SNORA58 / RFU, C1orf63 / Fold change vs veh, C1orf63 / RFU, LRRFIP1 / Fold change vs veh, LRRFIP1 / RFU, NDUFAF7 / Fold change vs veh, NDUFAF7 / RFU, SLC12A2 / Fold change vs veh, SLC12A2 / RFU, IBTK / Fold change vs veh, IBTK / RFU, ESF1 / Fold change vs veh, ESF1 / Fold change vs veh, TMEM50B / RFU, TAOK1 / Fold change vs veh, TAOK1 / RFU, ACBD3 / Fold change vs veh, ACBD3 / RFU, TMA16 / Fold change vs veh, TMA16 / RFU, RWDD3 / Fold change vs veh, RWDD3 / RFU, BCAT1 / Fold change vs veh, BCAT1 / RFU, EDEM3 / Fold change vs veh, EDEM3 / RFU, TMEM33 / Fold change vs veh, TMEM33 / RFU, WDR75 / Fold change vs veh, WDR75 / RFU, AHCTF1 / Fold change vs veh, AHCTF1 / RFU, TFRC / Fold change vs veh, TFRC / RFU, ZDHHC17 / Fold change vs veh, ZDHHC17 / RFU, NOM1 / Fold change vs veh, NOM1 / RFU, ARL8B / Fold change vs veh, ARL8B / RFU, ZBTB11 / Fold change vs veh, ZBTB11 / RFU, TAMM41 / Fold change vs veh, TAMM41 / RFU, KIAA1704 /// LOC100996395 / Fold change vs veh, KIAA1704 /// LOC100996395 / RFU, ING1 / Fold change vs veh, ING1 / RFU, TRMT61B / Fold change vs veh, TRMT61B / RFU, FUBP3 / Fold change vs veh, FUBP3 / RFU, TP53 / Fold change vs veh, TP53 / RFU, TNKS2 / Fold change vs veh, TNKS2 / RFU, ZFP14 / Fold change vs veh, ZFP14 / RFU, ACTR2 / Fold change vs veh, ACTR2 / RFU, PPP3R1 / Fold change vs veh, PPP3R1 / RFU, PIK3R1 / Fold change vs veh, PIK3R1 / RFU, HNRNPA1 / Fold change vs veh, HNRNPA1 / RFU, RNF170 / Fold change vs veh, RNF170 / RFU, ZNF28 / Fold change vs veh, ZNF28 / RFU, RNGTT / Fold change vs veh, RNGTT / RFU, OGT / Fold change vs veh, OGT / RFU, BRD1 / Fold change vs veh, BRD1 / RFU, MARS / Fold change vs veh, MARS / RFU, ZNF655 / Fold change vs veh, ZNF655 / RFU, FAHD1 / Fold change vs veh, FAHD1 / RFU, BDP1 / Fold change vs veh, BDP1 / RFU, LRRCC1 / Fold change vs veh, LRRCC1 / RFU, ARID1A / Fold change vs veh, ARID1A / RFU, ZNF146 / Fold change vs veh, ZNF146 / RFU, ZNF330 / Fold change vs veh, ZNF330 / RFU, GPN3 / Fold change vs veh, GPN3 / RFU, C9orf123 / Fold change vs veh, C9orf123 / RFU, N4BP2L2 / Fold change vs veh, N4BP2L2 / RFU, ARFIP1 / Fold change vs veh, ARFIP1 / RFU, FAM179B / Fold change vs veh, FAM179B / RFU, BCL10 / Fold change vs veh, BCL10 / RFU, UHRF1BP1L / Fold change vs veh, UHRF1BP1L / RFU, BET1 / Fold change vs veh, BET1 / RFU, CNOT2 / Fold change vs veh, CNOT2 / RFU, ZNF268 / Fold change vs veh, ZNF268 / Fold change vs veh, ZNF507 / RFU, DGCR2 / Fold change vs veh, DGCR2 / RFU, WDSUB1 / Fold change vs veh, WDSUB1 / Fold change vs veh, HSP90B1 /// MIR3652 / RFU, ADSS / Fold change vs veh, ADSS / RFU, GK / Fold change vs veh, GK / RFU, ZNF148 / Fold change vs veh, ZNF148 / RFU, TAF9 / Fold change vs veh, TAF9 / RFU, SLC1A5 / Fold change vs veh, SLC1A5 / RFU, SLMO2 / Fold change vs veh, SLMO2 / RFU, ABCC4 / Fold change vs veh, ABCC4 / RFU, LOC101060439 /// RAP1B / Fold change vs veh, LOC101060439 /// RAP1B / RFU, RFX7 / Fold change vs veh, RFX7 / RFU, GTPBP10 / Fold change vs veh, GTPBP10 / RFU, CNEP1R1 / Fold change vs veh, CNEP1R1 / RFU, BIVM-ERCC5 /// ERCC5 / Fold change vs veh, BIVM-ERCC5 /// ERCC5 / RFU, ILF3 / Fold change vs veh, ILF3 / RFU 11762660_at / Fold change /veh 11762660_at / RFU VCAN (11757783_s_at) / Fold change /veh VCAN (11757783_s_at) / RFU DDX43 (11728927_at) / Fold change /veh DDX43 (11728927_at) / RFU KRT8 (11758188_x_at) / Fold change /veh KRT8 (11758188_x_at) / RFU NKD1 (11759106_at) / Fold change /veh NKD1 (11759106_at) / RFU SRD5A1 (11742802_a_at) / Fold change /veh SRD5A1 (11742802_a_at) / RFU TPSAB1 /// TPSB2 (11721975_s_at) / Fold change /veh TPSAB1 /// TPSB2 (11721975_s_at) / RFU GSTM3 (11746129_a_at) / Fold change /veh GSTM3 (11746129_a_at) / RFU IL23R (11737362_x_at) / Fold change /veh IL23R (11737362_x_at) / RFU TMEM51 (11727254_a_at) / Fold change /veh TMEM51 (11727254_a_at) / RFU PIWIL2 (11732686_x_at) / Fold change /veh PIWIL2 (11732686_x_at) / RFU ORM1 (11744905_x_at) / Fold change /veh ORM1 (11744905_x_at) / RFU CCDC152 (11743942_at) / Fold change /veh CCDC152 (11743942_at) / RFU ECM1 (11717891_a_at) / Fold change /veh ECM1 (11717891_a_at) / RFU IL23R (11748794_a_at) / Fold change /veh IL23R (11748794_a_at) / RFU TNFAIP8L3 (11732012_x_at) / Fold change /veh TNFAIP8L3 (11732012_x_at) / RFU MBOAT4 (11741988_at) / Fold change /veh MBOAT4 (11741988_at) / RFU 11764193_at / Fold change /veh 11764193_at / RFU TMEM53 (11763286_at) / Fold change /veh TMEM53 (11763286_at) / RFU MAGEB2 (11727129_at) / Fold change /veh MAGEB2 (11727129_at) / RFU TMEM200A (11744735_a_at) / Fold change /veh TMEM200A (11744735_a_at) / RFU CCDC152 (11751479_a_at) / Fold change /veh CCDC152 (11751479_a_at) / RFU FAM211A (11726209_a_at) / Fold change /veh FAM211A (11726209_a_at) / RFU RGS16 (11746705_a_at) / Fold change /veh RGS16 (11746705_a_at) / RFU VCAN (11755009_s_at) / Fold change /veh VCAN (11755009_s_at) / RFU RHOB (11743442_s_at) / Fold change /veh RHOB (11743442_s_at) / RFU RGS16 (11720943_a_at) / Fold change /veh RGS16 (11720943_a_at) / RFU RGS16 (11720944_at) / Fold change /veh RGS16 (11720944_at) / RFU, VPS4B / Fold change vs veh, VPS4B / RFU, CREB1 / Fold change vs veh, CREB1 / RFU, DNAJC13 / Fold change vs veh, DNAJC13 / RFU, GNAQ / Fold change vs veh, GNAQ / RFU, CDK5R1 / Fold change vs veh, CDK5R1 / RFU, ZRANB3 / Fold change vs veh, ZRANB3 / RFU, CUL4A / Fold change vs veh, CUL4A / RFU, CCNY / Fold change vs veh, CCNY / RFU, UFL1 / Fold change vs veh, UFL1 / RFU, COG3 / Fold change vs veh, COG3 / RFU, DIAPH2 / Fold change vs veh, DIAPH2 / RFU, SKA2 / Fold change vs veh, SKA2 / RFU, AFF3 / Fold change vs veh, AFF3 / RFU, LMF1 / Fold change vs veh, LMF1 / RFU, IPO11 / Fold change vs veh, IPO11 / RFU, DFFB / Fold change vs veh, DFFB / RFU, FOXP1 / Fold change vs veh, FOXP1 / RFU, CARD8 / Fold change vs veh, CARD8 / RFU, STRN3 / Fold change vs veh, STRN3 / RFU, ADK / Fold change vs veh, ADK / RFU, RASSF2 / Fold change vs veh, RASSF2 / RFU, WIPF1 / Fold change vs veh, WIPF1 / RFU, LARP1B / Fold change vs veh, LARP1B / RFU, RASA1 / Fold change vs veh, RASA1 / RFU, RB1 / Fold change vs veh, RB1 / RFU, PPFIA1 / Fold change vs veh, PPFIA1 / RFU, MAT2A / Fold change vs veh, MAT2A / RFU, CCT5 / Fold change vs veh, CCT5 / RFU, WDR92 / Fold change vs veh, WDR92 / RFU, CUX1 / Fold change vs veh, CUX1 / RFU, TTC7A / Fold change vs veh, TTC7A / RFU, TMEM135 / Fold change vs veh, TMEM135 / RFU, DEPTOR / Fold change vs veh, DEPTOR / RFU, CPM / Fold change vs veh, CPM / RFU, DNAJB6 / Fold change vs veh, DNAJB6 / RFU, CACNA2D3 / Fold change vs veh, CACNA2D3 / RFU, DTX4 / Fold change vs veh, DTX4 / RFU, TFCP2 / Fold change vs veh, TFCP2 / RFU, GMCL1 /// GMCL1P1 / Fold change vs veh, GMCL1 /// GMCL1P1 / RFU, AEBP2 / Fold change vs veh, AEBP2 / RFU, SNHG1 /// SNORD22 /// SNORD25 /// SNORD26 /// SNORD27 /// SNORD28 /// SNORD29 /// SNORD31 / Fold change vs veh, SNHG1 /// SNORD22 /// SNORD25 /// SNORD26 /// SNORD27 /// SNORD28 /// SNORD29 /// SNORD31 / Fold change (Aza/veh), C12orf56 (ProbeSet 11735607_a_at) / Fold change (ACY-1035/veh), C12orf56 (ProbeSet 11735607_a_at) / Fold change (Aza/veh), FGFR1OP (ProbeSet 11751329_s_at) / Fold change (ACY-1035/veh), FGFR1OP (ProbeSet 11751329_s_at) / Fold change (Aza/veh), VPS36 (ProbeSet 11739960_a_at) / Fold change (ACY-1035/veh), VPS36 (ProbeSet 11739960_a_at) / RFU SYPL1 (11715823_x_at) / Fold change /veh SYPL1 (11715823_x_at) / RFU IGFBP7 (11715501_s_at) / Fold change /veh IGFBP7 (11715501_s_at) / RFU REEP3 (11722064_at) / Fold change /veh REEP3 (11722064_at) / RFU IGLL1 (11728026_x_at) / Fold change /veh IGLL1 (11728026_x_at): dose or concentration left out as unconfirmed. Conditions: MV-4-11 cells, 48 hours.

Results on one compound are retold here after publication PMC5218480 (PLoS ONE, 2017).

In the case of `Nc1ncn([C@@H]2O[C@H](CO)[C@@H](O)[C@H]2O)c(=O)n1` [azacitidine], the “Fold change /veh IL23R (11748794_a_at)” value was found to be 1.48.
